Results as given in article PMC5218480 (PLoS ONE, 2017).

Tested on: MV-4-11 cells
Test: Gene expression microarray analysis (Affymetrix PrimeView) and GSEA
Assay type: cell-based, human
Set-up: RFU PODN (11730768_x_at) / Fold change /veh PODN (11730768_x_at) / RFU LINC00158 (11744669_a_at) / Fold change /veh LINC00158 (11744669_a_at) / RFU DUSP10 (11751237_a_at) / Fold change /veh DUSP10 (11751237_a_at) / RFU ID3 (11757404_x_at) / Fold change /veh ID3 (11757404_x_at) / RFU PLEKHG5 (11737974_s_at) / Fold change /veh PLEKHG5 (11737974_s_at) / RFU LRRC4B (11730491_at) / Fold change /veh LRRC4B (11730491_at) / RFU GIMAP4 (11747438_a_at) / Fold change /veh GIMAP4 (11747438_a_at) / RFU KRT8 (11758183_x_at) / Fold change /veh KRT8 (11758183_x_at) / RFU CNN1 (11734310_a_at) / Fold change /veh CNN1 (11734310_a_at) / RFU VPS37D (11726825_at) / Fold change /veh VPS37D (11726825_at) / RFU C10orf10 (11716522_x_at) / Fold change /veh C10orf10 (11716522_x_at) / RFU KIR2DL2 /// KIR2DL4 /// KIR2DL5A /// KIR2DL5B /// KIR2DS1 /// KIR2DS2 /// KIR2DS3 /// KIR2DS4 /// KIR3DL3 /// KIR3DL3 /// KIR3DS1 (11738374_at) / Fold change /veh KIR2DL2 /// KIR2DL4 /// KIR2DL5A /// KIR2DL5B /// KIR2DS1 /// KIR2DS2 /// KIR2DS3 /// KIR2DS4 /// KIR3DL3 /// KIR3DL3 /// KIR3DS1 (11738374_at) / RFU C1QL1 (11718748_at) / Fold change /veh C1QL1 (11718748_at) / RFU TMPRSS4 (11747572_a_at) / Fold change /veh TMPRSS4 (11747572_a_at) / RFU HAMP (11756126_x_at) / Fold change /veh HAMP (11756126_x_at) / RFU RNFT2 (11725882_a_at) / Fold change /veh RNFT2 (11725882_a_at) / RFU NR4A2 (11747474_a_at) / Fold change /veh NR4A2 (11747474_a_at) / RFU ABCC12 (11746883_a_at) / Fold change /veh ABCC12 (11746883_a_at) / RFU TMEM136 (11760407_x_at) / Fold change /veh TMEM136 (11760407_x_at) / RFU CLDN22 /// WWC2 (11732394_at) / Fold change /veh CLDN22 /// WWC2 (11732394_at) / RFU HLA-DPB1 (11760878_x_at) / Fold change /veh HLA-DPB1 (11760878_x_at) / RFU SPINT1 (11716480_a_at) / Fold change /veh SPINT1 (11716480_a_at) / RFU GAP43 (11754022_s_at) / Fold change /veh GAP43 (11754022_s_at) / RFU A4GNT (11735810_at) / Fold change /veh A4GNT (11735810_at) / RFU PRB3 (11715151_x_at) / Fold change /veh PRB3 (11715151_x_at) / RFU TUBB4B (11761932_at) / Fold change /veh TUBB4B (11761932_at) / RFU CAPN14 (11732068_a_at) / Fold change /veh CAPN14 (11732068_a_at) / RFU TMCC2 (11721928_a_at) / Fold change /veh TMCC2 (11721928_a_at) / RFU IRGQ (11745062_a_at) / Fold change /veh IRGQ (11745062_a_at) / RFU FAM174B (11720279_a_at) / Fold change /veh FAM174B (11720279_a_at) / RFU TMPRSS4 (11748680_a_at) / Fold change /veh TMPRSS4 (11748680_a_at) / RFU FAM212B (11763350_a_at) / Fold change /veh FAM212B (11763350_a_at) / RFU PLEKHG5 (11743358_a_at) / Fold change /veh PLEKHG5 (11743358_a_at) / RFU ZSCAN30 (11745921_a_at) / Fold change /veh ZSCAN30 (11745921_a_at) / RFU CMKLR1 (11741424_a_at) / Fold change /veh CMKLR1 (11741424_a_at) / RFU LOC101060620 /// MAPK8IP1 (11723275_at) / Fold change /veh LOC101060620 /// MAPK8IP1 (11723275_at) / RFU SPTSSB (11747773_x_at) / Fold change /veh SPTSSB (11747773_x_at) / RFU PRSS12 (11739890_at) / Fold change /veh PRSS12 (11739890_at) / RFU BIN1 (11741810_x_at) / Fold change /veh BIN1 (11741810_x_at) / RFU WNT11 (11732464_a_at) / Fold change /veh WNT11 (11732464_a_at) / RFU C10orf10 (11716521_a_at) / Fold change /veh C10orf10 (11716521_a_at) / RFU C5orf56 (11738089_at) / Fold change /veh C5orf56 (11738089_at) / RFU CYB561 (11721691_x_at) / Fold change /veh CYB561 (11721691_x_at) / RFU ANKRD19P (11752326_a_at) / Fold change /veh ANKRD19P (11752326_a_at) / RFU OR2T12 /// OR2T33 /// OR2T8 (11738714_s_at) / Fold change /veh OR2T12 /// OR2T33 /// OR2T8 (11738714_s_at) / RFU VCAN (11748164_a_at) / Fold change /veh VCAN (11748164_a_at) / RFU JSRP1 (11732532_at) / Fold change /veh JSRP1 (11732532_at) / RFU KRTAP10-11 (11738290_x_at) / Fold change /veh KRTAP10-11 (11738290_x_at) / RFU MYO3A (11730013_a_at) / Fold change /veh MYO3A (11730013_a_at) / RFU EBF3 (11725865_a_at) / Fold change /veh EBF3 (11725865_a_at) / RFU CAMK2N1 (11719241_x_at) / Fold change /veh CAMK2N1 (11719241_x_at) / RFU C5orf56 (11738088_a_at) / Fold change /veh C5orf56 (11738088_a_at) / RFU OLFML3 (11715873_a_at) / Fold change /veh OLFML3 (11715873_a_at) / RFU LOC100653217 /// NTM (11731650_a_at) / Fold change /veh LOC100653217 /// NTM (11731650_a_at) / RFU MAPK11 (11762145_a_at) / Fold change /veh MAPK11 (11762145_a_at) / RFU FIZ1 (11724087_x_at) / Fold change /veh FIZ1 (11724087_x_at) / RFU OASL (11726364_x_at) / Fold change /veh OASL (11726364_x_at) / RFU SOX15 (11748057_x_at) / Fold change /veh SOX15 (11748057_x_at) / RFU CD79A (11719716_a_at) / Fold change /veh CD79A (11719716_a_at) / RFU HIST1H1D (11736915_at) / Fold change /veh HIST1H1D (11736915_at) / RFU CASKIN2 (11723855_a_at) / Fold change /veh CASKIN2 (11723855_a_at) / RFU LOC730098 (11760151_x_at) / Fold change /veh LOC730098 (11760151_x_at) / RFU OR4N2 (11742367_at) / Fold change /veh OR4N2 (11742367_at) / RFU PRRT2 (11749266_a_at) / Fold change /veh PRRT2 (11749266_a_at) / RFU SNX32 (11753110_a_at) / Fold change /veh SNX32 (11753110_a_at) / RFU CDHR5 (11726645_a_at) / Fold change /veh CDHR5 (11726645_a_at) / RFU RCAN1 (11760418_a_at) / Fold change /veh RCAN1 (11760418_a_at) / RFU FAM167A (11723789_a_at) / Fold change /veh FAM167A (11723789_a_at) / RFU FAM26E (11764081_at) / Fold change /veh FAM26E (11764081_at) / RFU ISYNA1 (11749810_s_at) / Fold change /veh ISYNA1 (11749810_s_at) / RFU ACY1 (11761880_at) / Fold change /veh ACY1 (11761880_at) / RFU 11764098_at / Fold change /veh 11764098_at / RFU SAMD14 (11745864_x_at) / Fold change /veh SAMD14 (11745864_x_at) / RFU NPB (11741838_a_at) / Fold change /veh NPB (11741838_a_at) / RFU TMPRSS6 (11731388_a_at) / Fold change /veh TMPRSS6 (11731388_a_at) / RFU KRTAP10-2 (11738614_at) / Fold change /veh KRTAP10-2 (11738614_at) / RFU ARHGAP8 /// PRR5-ARHGAP8 (11727945_x_at) / Fold change /veh ARHGAP8 /// PRR5-ARHGAP8 (11727945_x_at) / RFU KRTAP5-7 /// NADSYN1 (11734609_at) / Fold change /veh KRTAP5-7 /// NADSYN1 (11734609_at) / RFU RASL12 (11751679_a_at) / Fold change /veh RASL12 (11751679_a_at) / RFU CDKN2B (11736163_a_at) / Fold change /veh CDKN2B (11736163_a_at) / RFU PRF1 (11729649_at) / Fold change /veh PRF1 (11729649_at) / RFU, ZNF638 /// ZNF638-IT1 / Fold change vs veh, ZNF638 /// ZNF638-IT1 / RFU, PANK3 / Fold change vs veh, PANK3 / RFU, SH3YL1 / Fold change vs veh, SH3YL1 / RFU, ZEB2 / Fold change vs veh, ZEB2 / RFU, NRIP1 / Fold change vs veh, NRIP1 / RFU, PTTG1IP / Fold change vs veh, PTTG1IP / RFU, CAPN2 / Fold change vs veh, CAPN2 / RFU, MED14 / Fold change vs veh, MED14 / RFU, SNORA58 / Fold change vs veh, SNORA58 / RFU, C1orf63 / Fold change vs veh, C1orf63 / RFU, LRRFIP1 / Fold change vs veh, LRRFIP1 / RFU, NDUFAF7 / Fold change vs veh, NDUFAF7 / RFU, SLC12A2 / Fold change vs veh, SLC12A2 / RFU, IBTK / Fold change vs veh, IBTK / RFU, ESF1 / Fold change vs veh, ESF1 / Fold change vs veh, TMEM50B / RFU, TAOK1 / Fold change vs veh, TAOK1 / RFU, ACBD3 / Fold change vs veh, ACBD3 / RFU, TMA16 / Fold change vs veh, TMA16 / RFU, RWDD3 / Fold change vs veh, RWDD3 / RFU, BCAT1 / Fold change vs veh, BCAT1 / RFU, EDEM3 / Fold change vs veh, EDEM3 / RFU, TMEM33 / Fold change vs veh, TMEM33 / RFU, WDR75 / Fold change vs veh, WDR75 / RFU, AHCTF1 / Fold change vs veh, AHCTF1 / RFU, TFRC / Fold change vs veh, TFRC / RFU, ZDHHC17 / Fold change vs veh, ZDHHC17 / RFU, NOM1 / Fold change vs veh, NOM1 / RFU, ARL8B / Fold change vs veh, ARL8B / RFU, ZBTB11 / Fold change vs veh, ZBTB11 / RFU, TAMM41 / Fold change vs veh, TAMM41 / RFU, KIAA1704 /// LOC100996395 / Fold change vs veh, KIAA1704 /// LOC100996395 / RFU, ING1 / Fold change vs veh, ING1 / RFU, TRMT61B / Fold change vs veh, TRMT61B / RFU, FUBP3 / Fold change vs veh, FUBP3 / RFU, TP53 / Fold change vs veh, TP53 / RFU, TNKS2 / Fold change vs veh, TNKS2 / RFU, ZFP14 / Fold change vs veh, ZFP14 / RFU, ACTR2 / Fold change vs veh, ACTR2 / RFU, PPP3R1 / Fold change vs veh, PPP3R1 / RFU, PIK3R1 / Fold change vs veh, PIK3R1 / RFU, HNRNPA1 / Fold change vs veh, HNRNPA1 / RFU, RNF170 / Fold change vs veh, RNF170 / RFU, ZNF28 / Fold change vs veh, ZNF28 / RFU, RNGTT / Fold change vs veh, RNGTT / RFU, OGT / Fold change vs veh, OGT / RFU, BRD1 / Fold change vs veh, BRD1 / RFU, MARS / Fold change vs veh, MARS / RFU, ZNF655 / Fold change vs veh, ZNF655 / RFU, FAHD1 / Fold change vs veh, FAHD1 / RFU, BDP1 / Fold change vs veh, BDP1 / RFU, LRRCC1 / Fold change vs veh, LRRCC1 / RFU, ARID1A / Fold change vs veh, ARID1A / RFU, ZNF146 / Fold change vs veh, ZNF146 / RFU, ZNF330 / Fold change vs veh, ZNF330 / RFU, GPN3 / Fold change vs veh, GPN3 / RFU, C9orf123 / Fold change vs veh, C9orf123 / RFU, N4BP2L2 / Fold change vs veh, N4BP2L2 / RFU, ARFIP1 / Fold change vs veh, ARFIP1 / RFU, FAM179B / Fold change vs veh, FAM179B / RFU, BCL10 / Fold change vs veh, BCL10 / RFU, UHRF1BP1L / Fold change vs veh, UHRF1BP1L / RFU, BET1 / Fold change vs veh, BET1 / RFU, CNOT2 / Fold change vs veh, CNOT2 / RFU, ZNF268 / Fold change vs veh, ZNF268 / Fold change vs veh, ZNF507 / RFU, DGCR2 / Fold change vs veh, DGCR2 / RFU, WDSUB1 / Fold change vs veh, WDSUB1 / Fold change vs veh, HSP90B1 /// MIR3652 / RFU, ADSS / Fold change vs veh, ADSS / RFU, GK / Fold change vs veh, GK / RFU, ZNF148 / Fold change vs veh, ZNF148 / RFU, TAF9 / Fold change vs veh, TAF9 / RFU, SLC1A5 / Fold change vs veh, SLC1A5 / RFU, SLMO2 / Fold change vs veh, SLMO2 / RFU, ABCC4 / Fold change vs veh, ABCC4 / RFU, LOC101060439 /// RAP1B / Fold change vs veh, LOC101060439 /// RAP1B / RFU, RFX7 / Fold change vs veh, RFX7 / RFU, GTPBP10 / Fold change vs veh, GTPBP10 / RFU, CNEP1R1 / Fold change vs veh, CNEP1R1 / RFU, BIVM-ERCC5 /// ERCC5 / Fold change vs veh, BIVM-ERCC5 /// ERCC5 / RFU, ILF3 / Fold change vs veh, ILF3 / RFU 11762660_at / Fold change /veh 11762660_at / RFU VCAN (11757783_s_at) / Fold change /veh VCAN (11757783_s_at) / RFU DDX43 (11728927_at) / Fold change /veh DDX43 (11728927_at) / RFU KRT8 (11758188_x_at) / Fold change /veh KRT8 (11758188_x_at) / RFU NKD1 (11759106_at) / Fold change /veh NKD1 (11759106_at) / RFU SRD5A1 (11742802_a_at) / Fold change /veh SRD5A1 (11742802_a_at) / RFU TPSAB1 /// TPSB2 (11721975_s_at) / Fold change /veh TPSAB1 /// TPSB2 (11721975_s_at) / RFU GSTM3 (11746129_a_at) / Fold change /veh GSTM3 (11746129_a_at) / RFU IL23R (11737362_x_at) / Fold change /veh IL23R (11737362_x_at) / RFU TMEM51 (11727254_a_at) / Fold change /veh TMEM51 (11727254_a_at) / RFU PIWIL2 (11732686_x_at) / Fold change /veh PIWIL2 (11732686_x_at) / RFU ORM1 (11744905_x_at) / Fold change /veh ORM1 (11744905_x_at) / RFU CCDC152 (11743942_at) / Fold change /veh CCDC152 (11743942_at) / RFU ECM1 (11717891_a_at) / Fold change /veh ECM1 (11717891_a_at) / RFU IL23R (11748794_a_at) / Fold change /veh IL23R (11748794_a_at) / RFU TNFAIP8L3 (11732012_x_at) / Fold change /veh TNFAIP8L3 (11732012_x_at) / RFU MBOAT4 (11741988_at) / Fold change /veh MBOAT4 (11741988_at) / RFU 11764193_at / Fold change /veh 11764193_at / RFU TMEM53 (11763286_at) / Fold change /veh TMEM53 (11763286_at) / RFU MAGEB2 (11727129_at) / Fold change /veh MAGEB2 (11727129_at) / RFU TMEM200A (11744735_a_at) / Fold change /veh TMEM200A (11744735_a_at) / RFU CCDC152 (11751479_a_at) / Fold change /veh CCDC152 (11751479_a_at) / RFU FAM211A (11726209_a_at) / Fold change /veh FAM211A (11726209_a_at) / RFU RGS16 (11746705_a_at) / Fold change /veh RGS16 (11746705_a_at) / RFU VCAN (11755009_s_at) / Fold change /veh VCAN (11755009_s_at) / RFU RHOB (11743442_s_at) / Fold change /veh RHOB (11743442_s_at) / RFU RGS16 (11720943_a_at) / Fold change /veh RGS16 (11720943_a_at) / RFU RGS16 (11720944_at) / Fold change /veh RGS16 (11720944_at) / RFU, VPS4B / Fold change vs veh, VPS4B / RFU, CREB1 / Fold change vs veh, CREB1 / RFU, DNAJC13 / Fold change vs veh, DNAJC13 / RFU, GNAQ / Fold change vs veh, GNAQ / RFU, CDK5R1 / Fold change vs veh, CDK5R1 / RFU, ZRANB3 / Fold change vs veh, ZRANB3 / RFU, CUL4A / Fold change vs veh, CUL4A / RFU, CCNY / Fold change vs veh, CCNY / RFU, UFL1 / Fold change vs veh, UFL1 / RFU, COG3 / Fold change vs veh, COG3 / RFU, DIAPH2 / Fold change vs veh, DIAPH2 / RFU, SKA2 / Fold change vs veh, SKA2 / RFU, AFF3 / Fold change vs veh, AFF3 / RFU, LMF1 / Fold change vs veh, LMF1 / RFU, IPO11 / Fold change vs veh, IPO11 / RFU, DFFB / Fold change vs veh, DFFB / RFU, FOXP1 / Fold change vs veh, FOXP1 / RFU, CARD8 / Fold change vs veh, CARD8 / RFU, STRN3 / Fold change vs veh, STRN3 / RFU, ADK / Fold change vs veh, ADK / RFU, RASSF2 / Fold change vs veh, RASSF2 / RFU, WIPF1 / Fold change vs veh, WIPF1 / RFU, LARP1B / Fold change vs veh, LARP1B / RFU, RASA1 / Fold change vs veh, RASA1 / RFU, RB1 / Fold change vs veh, RB1 / RFU, PPFIA1 / Fold change vs veh, PPFIA1 / RFU, MAT2A / Fold change vs veh, MAT2A / RFU, CCT5 / Fold change vs veh, CCT5 / RFU, WDR92 / Fold change vs veh, WDR92 / RFU, CUX1 / Fold change vs veh, CUX1 / RFU, TTC7A / Fold change vs veh, TTC7A / RFU, TMEM135 / Fold change vs veh, TMEM135 / RFU, DEPTOR / Fold change vs veh, DEPTOR / RFU, CPM / Fold change vs veh, CPM / RFU, DNAJB6 / Fold change vs veh, DNAJB6 / RFU, CACNA2D3 / Fold change vs veh, CACNA2D3 / RFU, DTX4 / Fold change vs veh, DTX4 / RFU, TFCP2 / Fold change vs veh, TFCP2 / RFU, GMCL1 /// GMCL1P1 / Fold change vs veh, GMCL1 /// GMCL1P1 / RFU, AEBP2 / Fold change vs veh, AEBP2 / RFU, SNHG1 /// SNORD22 /// SNORD25 /// SNORD26 /// SNORD27 /// SNORD28 /// SNORD29 /// SNORD31 / Fold change vs veh, SNHG1 /// SNORD22 /// SNORD25 /// SNORD26 /// SNORD27 /// SNORD28 /// SNORD29 /// SNORD31 / Fold change (Aza/veh), C12orf56 (ProbeSet 11735607_a_at) / Fold change (ACY-1035/veh), C12orf56 (ProbeSet 11735607_a_at) / Fold change (Aza/veh), FGFR1OP (ProbeSet 11751329_s_at) / Fold change (ACY-1035/veh), FGFR1OP (ProbeSet 11751329_s_at) / Fold change (Aza/veh), VPS36 (ProbeSet 11739960_a_at) / Fold change (ACY-1035/veh), VPS36 (ProbeSet 11739960_a_at) / RFU SYPL1 (11715823_x_at) / Fold change /veh SYPL1 (11715823_x_at) / RFU IGFBP7 (11715501_s_at) / Fold change /veh IGFBP7 (11715501_s_at) / RFU REEP3 (11722064_at) / Fold change /veh REEP3 (11722064_at) / RFU IGLL1 (11728026_x_at) / Fold change /veh IGLL1 (11728026_x_at): dose or concentration left out as unconfirmed
Details: MV-4-11 cells, 48 hours

Nc1ccc(-c2cccs2)cc1NC(=O)c1ccc2c(c1)cc(C1CC1)n2CCN1CCOCC1 [ACY-1035]
Fold change /veh RGS16 (11720943_a_at): 0.99
